Laboratory results published in ChEMBL document CHEMBL3868582, “Discovery, pharmacology, and clinical profile of omadacycline, a novel aminomethylcycline antibiotic” (Bioorg Med Chem, 2016).
Converted amounts (≈) assume the structure as drawn.

Experiments:
[1] = Drug excretion in human urine at 36.6 uCi, po administered as single dose; assay type: ADME, organism-based; conditions: in vivo
Streptococcus pneumoniae [2] = test: Antibacterial activity against Streptococcus pneumoniae PBS1399; assay type: functional
Streptococcus pneumoniae [3] = test: Antibacterial activity against Streptococcus pneumoniae PBS1399 infected in mouse assessed as protection against bacterial infection by measuring mouse survival administered intravenously as single dose after 2 hrs of infection measured on day 7; assay type: functional; conditions: PBS1399, iv, read-out: PD50
Haemophilus influenzae [4] = test: Antibacterial activity against Haemophilus influenzae PBS981; assay type: functional
Haemophilus influenzae [5] = test: Antibacterial activity against Haemophilus influenzae PBS981 infected in CD-1 mouse assessed as reduction in bacterial load in lungs administered intravenously as single dose after 2 hrs of infection measured after 24 hrs post treatment; assay type: functional; conditions: PBS981, iv
Clostridioides difficile = test: Antibacterial activity against Clostridium difficile infected in hamster model assessed as median survival time; assay type: functional
Staphylococcus aureus [6] = test: Antibacterial activity against Staphylococcus aureus USA300; assay type: functional
Staphylococcus aureus [7] = test: Antibacterial activity against Staphylococcus aureus USA400; assay type: functional
Staphylococcus aureus [8] = test: Antibacterial activity against Staphylococcus aureus USA300 in mouse thigh wound infection model assessed as reduction in bacterial load administered intravenously as single dose after 2 hrs of infection measured after 24 hrs post treatment; assay type: functional; conditions: USA300, iv
Staphylococcus aureus [9] = test: Antibacterial activity against Staphylococcus aureus USA400 in mouse thigh wound infection model assessed as reduction in bacterial load administered intravenously as single dose after 2 hrs of infection measured after 24 hrs post treatment; assay type: functional; conditions: USA400, iv
[10] = Cmax in human at 50 mg, iv q12h; assay type: ADME, organism-based; parameters: dose 50 mg, route intravenous; conditions: in vivo
[11] = AUC(0 to 24 hrs) in human at 50 mg, iv q12h; assay type: ADME, organism-based; parameters: dose 50 mg, time < 24 hr, route intravenous; conditions: in vivo
[12] = Systemic clearance in human at 50 mg, iv q12h; assay type: ADME, organism-based; conditions: in vivo
[13] = Terminal half life in human at 50 mg, iv q12h; assay type: ADME, organism-based; conditions: in vivo, read-out: beta t1/2
[14] = Protein binding in human plasma; assay type: ADME, cell-free; conditions: read-out: PPB

| Structure (SMILES) | MIC (Streptococcus pneumoniae [2]) [µg/mL] | ED50 (Streptococcus pneumoniae [3]) [mg/kg] | MIC (Haemophilus influenzae [4]) [µg/mL] | ED50 (Haemophilus influenzae [5]) [mg/kg] | also measured |
| --- | --- | --- | --- | --- | --- |
| CN(C)c1cc([14CH2]NCC(C)(C)C)c(O)c2c1C[C@H]1C[C@H]3[C@@H](N(C)C)C(O)=C(C(N)=O)C(=O)[C@@]3(O)C(O)=C1C2=O |  |  |  |  | Drug excretion [1]: 14.4 %ID |
| CC[C@H]1OC(=O)[C@H](C)[C@@H](O[C@H]2C[C@@](C)(OC)[C@@H](O)[C@H](C)O2)[C@H](C)[C@@H](O[C@@H]2O[C@H](C)C[C@H](N(C)C)[C@H]2O)[C@](C)(O)C[C@@H](C)CN(C)[C@H](C)[C@@H](O)[C@]1(C)O [AZITHROMYCIN] | 0.03 (≈ 0.0401 µM) | 3.31 |  |  |  |
| CO/N=C(\C(=O)N[C@@H]1C(=O)N2C(C(=O)O)=C(CSc3nc(=O)c(O)nn3C)CS[C@H]12)c1csc(N)n1 [CEFTRIAXONE] | 0.015 (≈ 0.027 µM) | 0.37 | < 0.06 | 0.1 |  |
| O=C(O)c1cn(C2CC2)c2cc(N3CCNCC3)c(F)cc2c1=O [CIPROFLOXACIN] |  |  | < 0.06 | 1.16 |  |
| CCC[C@@H]1C[C@@H](C(=O)N[C@@H]([C@H]2O[C@H](SC)[C@H](O)[C@@H](O)[C@H]2O)[C@H](C)Cl)N(C)C1 [CLINDAMYCIN] |  |  |  |  | MST (Clostridioides difficile): 4 days |
| CCCCCCCCCC(=O)N[C@@H](Cc1c[nH]c2ccccc12)C(=O)N[C@@H](CC(N)=O)C(=O)N[C@@H](CC(=O)O)C(=O)N[C@@H]1C(=O)NCC(=O)N[C@@H](CCCN)C(=O)N[C@@H](CC(=O)O)C(=O)N[C@H](C)C(=O)N[C@@H](CC(=O)O)C(=O)NCC(=O)N[C@H](CO)C(=O)N[C@@H]([C@H](C)CC(=O)O)C(=O)N[C@@H](CC(=O)c2ccccc2N)C(=O)O[C@@H]1C [DAPTOMYCIN] | 0.25 (≈ 0.154 µM) | > 100 |  |  |  |
| C[C@H]1c2cccc(O)c2C(=O)C2=C(O)[C@]3(O)C(=O)C(C(N)=O)=C(O)[C@@H](N(C)C)[C@@H]3[C@@H](O)[C@@H]21.O [DOXYCYCLINE] | 0.125 | 10.3 |  |  |  |
| C[C@H]1COc2c(N3CCN(C)CC3)c(F)cc3c(=O)c(C(=O)O)cn1c23.C[C@H]1COc2c(N3CCN(C)CC3)c(F)cc3c(=O)c(C(=O)O)cn1c23.O [LEVOFLOXACIN] |  | > 18 | < 0.06 | 2.4 |  |
| CC(=O)NC[C@H]1CN(c2ccc(N3CCOCC3)c(F)c2)C(=O)O1 [LINEZOLID] |  | 38.8 |  |  |  |
| CN(C)c1ccc(O)c2c1C[C@H]1C[C@H]3[C@H](N(C)C)C(O)=C(C(N)=O)C(=O)[C@@]3(O)C(O)=C1C2=O [MINOCYCLINE] | 0.25 (≈ 0.546 µM) | 3.44 |  |  |  |
| CN(C)c1cc(NC(=O)CNC(C)(C)C)c(O)c2c1C[C@H]1C[C@H]3[C@H](N(C)C)C(O)=C(C(N)=O)C(=O)[C@@]3(O)C(O)=C1C2=O [TIGECYCLINE] | 0.125 (≈ 0.213 µM) | 0.91 | 0.25 (≈ 0.427 µM) | 2.31 | MIC (Staphylococcus aureus [6]): 0.125 µg/mL (≈ 0.213 µM); MIC (Staphylococcus aureus [7]): 0.06 µg/mL (≈ 0.102 µM); ED50 (Staphylococcus aureus [8]): 0.45 mg/kg; ED50 (Staphylococcus aureus [9]): 0.46 mg/kg; Cmax [10]: 870 ng/mL; AUC [11]: 4700 ng·h/mL; CL [12]: 23.8 L/h; half-life [13]: 37 to 66 h; fraction unbound [14]: 0.13 to 0.31 |
| CN[C@H](CC(C)C)C(=O)N[C@H]1C(=O)N[C@@H](CC(N)=O)C(=O)N[C@H]2C(=O)N[C@H]3C(=O)N[C@H](C(=O)N[C@H](C(=O)O)c4cc(O)cc(O)c4-c4cc3ccc4O)[C@H](O)c3ccc(c(Cl)c3)Oc3cc2cc(c3O[C@@H]2O[C@H](CO)[C@@H](O)[C@H](O)[C@H]2O[C@H]2C[C@](C)(N)[C@H](O)[C@H](C)O2)Oc2ccc(cc2Cl)[C@H]1O [VANCOMYCIN] | 0.5 (≈ 0.345 µM) | 3.3 |  |  | MST (Clostridioides difficile): 2 days |
